Source: patent US20080299538A1, “Pathogen Inactivation of Whole Blood” (CARIDIANBCT BIOTECHNOLOGIES, LLC, priority 2003, published 2008)
“And” between values parts separate entries of the source, which are not always exact repeats. Equal entries are not always repeated. Where two headings read alike, the source gives them in different places.

Key:
S. epidermidis = assay: Low bacteria titer study in whole blood; format: cell-based; set-up: key to Bacteria detected (+) or not detected (−) after treatment: +: some of the replicates of the cultures in the panel grew in under 5 days; −: none of the replicates of the cultures in the panel grew in under 5 days; conditions: for Bacteria detected (+) or not detected (−) after treatment: 110 J/mLRBC (n = 3)
Description: To test whether pathogen inactivation of whole blood was effective in inactivating clinically relevant levels of bacteria which may be present in the whole blood, low titer bacteria studies were done. After pathogen inactivation of whole blood, the whole blood was separated into a red blood cell (RBC) component and platelet rich plasma (PRP) component. A + symbol means that some of the replicates of the cultures in the panel grew in under 5 days. A − symbol means that none of the replicates of the cultures in the panel grew in under 5 days.

red blood cells [1] = assay: Mean osmotic fragility of stored red blood cells; format: cell-based; conditions: stored for 42 days; vs untreated cells
Protocol: Osmotic fragility during storage of red blood cells separated from pathogen inactivated whole blood was measured. The normal red blood cell is a relatively impermeable biconcave disc which maintains osmotic equilibrium with the surrounding medium. As the surrounding medium becomes hypotonic, fluid will be taken into the cell to maintain stability. Eventually under very hypotonic conditions the cell will fill to capacity and rupture. Red blood cells with damaged membranes have a decreased capacity to expand, and will rupture in mildly hypotonic conditions that fail to lyse normal red cells. […] Mean osmotic fragility (MOF) is a measure of red blood cell membrane fragility. The higher the MOF, the more fragile the red blood cells are. MOF is the concentration of NaCl where 50% of the red blood cells hemolyze.

red blood cells [2] = assay: ATP level in stored red blood cells; format: cell-based; conditions: increased energy levels
Protocol: ATP level or concentration was measured in red blood cells separated from pathogen inactivated whole blood. ATP concentration is a measure of the amount of ATP present in the cells at a given time.

[3] = system: vesicular stomatitis virus (VSV); format: cell-based; conditions: as a function of illumination energy
platelets = assay: Platelet quality during storage; format: cell-based
Protocol: Platelet quality is assessed with measurements of pH, swirl, lactate production rate and glucose consumption rate on Days 1 and 5.
Platelets were separated from pathogen inactivated whole blood and markers of platelet quality were measured.

white blood cells (WBCs) [4] = assay: Cytokine production in response to LPS (Cytometric Bead Assay); conditions: for % inhibition of IFN-γ production / % inhibition of IL-2 production / % inhibition of IL-4 production / % inhibition of IL-5 production / % inhibition of IL-10 production / % inhibition of TNFα production / % inhibition of IL-1β production / % inhibition of IL-6 production / % inhibition of IL-8 production: LPS
white blood cells (WBCs) [5] = conditions: Allostimulation: treated stimulators
white blood cells (WBCs) [6] = assay: WBC functionality, all tested stimuli (summary statements); format: cell-based
white blood cells (WBCs) [7] = assay: Cytokine production in response to anti-CD3/CD28 (Cytometric Bead Assay)
[8] = over 5 days of storage at higher energy levels
[9] = inflammatory cytokines, 22 J/mlRBC
[10] = inflammatory cytokines, 33 J/mlRBC
[11] = inflammatory cytokines, 44 J/mlRBC
[12] = anti-CD3/28, 33 J/mlRBC and above, compared to untreated cells
[13] = anti-CD3/28, TH1/TH2 cytokines, 22 J/mlRBC

Cc1cc2nc3c(=O)[nH]c(=O)nc-3n(C[C@H](O)[C@H](O)[C@H](O)CO)c2cc1C [riboflavin, 7,8-dimethyl-10-ribityl isoalloxazine]
Bacteria detected (+) or not detected (−) after treatment (S. epidermidis; PRP): − | Bacteria detected (+) or not detected (−) after treatment (S. epidermidis; RBC): + | bacterial growth in red blood cells (S. epidermidis; 110 J/mLRBC, RBC): grew | osmotic fragility (MOF) of red blood cells (red blood cells [1]): slightly more fragile than untreated cells | total concentration of ATP in red blood cells (red blood cells [2]): decrease the total concentration of ATP | log reduction of virus [3]: increases linearly with respect to energy | platelet carbon dioxide production (platelets; [8]): appears to decrease | platelet glucose consumption (platelets; [8]): appears to decrease | platelet lactate production (platelets; [8]): appears to increase | platelet oxygen consumption (platelets; [8]): appears to increase | platelet pH (platelets; over 5 days of storage, treated and untreated): remains the same | inflammatory cytokine production in response to LPS (white blood cells (WBCs) [4]): reduced with treatment, but not to medium control levels | TH1/TH2 cytokine levels induced by LPS (white blood cells (WBCs) [4]; 44 J/mlRBC): reduced to medium control levels | % inhibition of IFN-γ production (white blood cells (WBCs) [4]; TH1/TH2 cytokines, 22 J/mlRBC): 63 ± 71% | % inhibition of IL-2 production (white blood cells (WBCs) [4]; TH1/TH2 cytokines, 22 J/mlRBC): 63 ± 54% | % inhibition of IL-4 production (white blood cells (WBCs) [4]; TH1/TH2 cytokines, 22 J/mlRBC): 59 ± 65% | % inhibition of IL-5 production (white blood cells (WBCs) [4]; TH1/TH2 cytokines, 22 J/mlRBC): 89 ± 2% | % inhibition of IL-10 production (white blood cells (WBCs) [4]; TH1/TH2 cytokines, 22 J/mlRBC): 66 ± 21% | % inhibition of TNFα production (white blood cells (WBCs) [4]; TH1/TH2 cytokines, 22 J/mlRBC): 45 ± 53% | % inhibition of IFN-γ production (white blood cells (WBCs) [4]; TH1/TH2 cytokines, 33 J/mlRBC): 93 ± 8% | % inhibition of IL-4 production (white blood cells (WBCs) [4]; TH1/TH2 cytokines, 33 J/mlRBC): 90 ± 4% | % inhibition of IL-10 production (white blood cells (WBCs) [4]; TH1/TH2 cytokines, 33 J/mlRBC): 94 ± 4% | % inhibition of TNFα production (white blood cells (WBCs) [4]; TH1/TH2 cytokines, 33 J/mlRBC): 94 ± 5% | % inhibition of IFN-γ production (white blood cells (WBCs) [4]; TH1/TH2 cytokines, 44 J/mlRBC): 93 ± 7% | % inhibition of IL-2 production (white blood cells (WBCs) [4]; TH1/TH2 cytokines, 44 J/mlRBC): 88 ± 4% | % inhibition of IL-4 production (white blood cells (WBCs) [4]; TH1/TH2 cytokines, 44 J/mlRBC): 90 ± 4% | % inhibition of IL-5 production (white blood cells (WBCs) [4]; TH1/TH2 cytokines, 44 J/mlRBC): 91 ± 6% | % inhibition of IL-10 production (white blood cells (WBCs) [4]; TH1/TH2 cytokines, 44 J/mlRBC): 99 ± 1% | % inhibition of TNFα production (white blood cells (WBCs) [4]; TH1/TH2 cytokines, 44 J/mlRBC): 94 ± 8% | % inhibition of IL-1β production (white blood cells (WBCs) [4]; [9]): 68 ± 19% | % inhibition of IL-6 production (white blood cells (WBCs) [4]; [9]): 84 ± 8% | % inhibition of IL-8 production (white blood cells (WBCs) [4]; [9]): 85 ± 8% | % inhibition of IL-10 production (white blood cells (WBCs) [4]; [9]): 63 ± 21% | % inhibition of TNFα production (white blood cells (WBCs) [4]; [9]): 54 ± 35% | % inhibition of IL-1β production (white blood cells (WBCs) [4]; [10]): 91 ± 8% | % inhibition of IL-6 production (white blood cells (WBCs) [4]; [10]): 96 ± 3% | % inhibition of IL-8 production (white blood cells (WBCs) [4]; [10]): 96 ± 4% | % inhibition of IL-10 production (white blood cells (WBCs) [4]; [10]): 94 ± 5% | % inhibition of TNFα production (white blood cells (WBCs) [4]; [10]): 92 ± 8% | % inhibition of IL-1β production (white blood cells (WBCs) [4]; [11]): 98 ± 3% | % inhibition of IL-6 production (white blood cells (WBCs) [4]; [11]): 99 ± 1% | % inhibition of IL-8 production (white blood cells (WBCs) [4]; [11]): 99 ± 1% | % inhibition of IL-10 production (white blood cells (WBCs) [4]; [11]): 99 ± 1% | % inhibition of TNFα production (white blood cells (WBCs) [4]; [11]): 98 ± 2% | % inhibition of proliferation (white blood cells (WBCs) [5]; 22 J/mlRBC): 93 ± 3% | % inhibition of proliferation (white blood cells (WBCs) [5]; 33 J/mlRBC): 96 ± 2% | % inhibition of proliferation (white blood cells (WBCs) [5]; 44 J/mlRBC): 95 ± 2% | inhibition of WBC proliferation / decrease of proliferative response (white blood cells (WBCs) [6]; all tested stimuli and antigen presentation, all energies tested, stimulated control vs stimulated treated cells): 93-99% and > 90% | functional inactivation of white blood cells in whole blood (white blood cells (WBCs) [6]; riboflavin and light): functionally inactivates the white blood cells | proliferation in response to PHA, anti-CD3/CD28 and allogeneic stimulator cells (white blood cells (WBCs) [6]; riboflavin+UV light at all energies tested): inhibited proliferation | inflammatory cytokine production in response to anti-CD3/28 antibodies (white blood cells (WBCs) [7]): significantly reduced | TH1/TH2 cytokine production induced by anti-CD3/28 stimulation (white blood cells (WBCs) [7]; all energies tested): significantly reduced | cytokine production in response to anti-CD3/anti-CD28 antibodies blocked (white blood cells (WBCs) [7]; all energies tested, with the exception of IL-4 and IL-8 at 22 J/mlRBC): > 90% | inhibition of IFN-γ production (white blood cells (WBCs) [7]; [12]): > 90% | inhibition of IL-2 production (white blood cells (WBCs) [7]; [12]): > 90% | inhibition of TNF-α production (white blood cells (WBCs) [7]; [12]): > 90% | % inhibition of IFN-γ production (white blood cells (WBCs) [7]; [13]): 99 ± 1% | % inhibition of IL-2 production (white blood cells (WBCs) [7]; [13]): 91 ± 7% | % inhibition of IL-4 production (white blood cells (WBCs) [7]; [13]): 84% | % inhibition of IL-5 production (white blood cells (WBCs) [7]; [13]): 94 ± 3%
